Here are results for three compounds from US20250277247A1, “NUCLEIC ACID AMPLIFICATIONS” (priority 2012, published 2025).

A value given as a limit tells only on which side of the number the result lay.

In data set [1] the test system is purified influenza A viral RNA. Format: biochemical. The conditions noted are these: 14 mM EGTA, 15 mM MgSO4, 100 mM Tris-Cl; about 20 minutes at room temperature, then 56° C., monitored 10 minutes; 0 or 100 copies.
Data set [2] has as its system genomic DNA from Mycobacterium bovis BCG. The class given is biochemical, Mycobacterium bovis BCG (ATCC strain 190115). As to conditions: 15 mM EGTA, 15 mM MgSO4; 15 minutes at room temperature, then 56° C., monitored 40 minutes; 20 or 200 copies vs no template.
For data set [3] the following is noted: cited from earlier work.
The conditions of data set [4]: NEAR reaction mixture, buffer pH 8 at room temperature, temperature increased to 56° C.; cited from earlier work.

As to `O=C(O)CN(CCOCCOCCN(CC(=O)O)CC(=O)O)CC(=O)O` [EGTA, Ethylene bis(oxyethylenenitrilo) tetraacetic acid], the “Amplification (real-time fluorescence)” value in data set [1] was “Amplification was observed only in the reactions that included both EGTA and 100 copies of viral RNA”; in data set [2], “significant amplification was observed”.

In the case of `O=S(=O)(O)CCN1CCN(CCS(=O)(=O)O)CC1` [PIPES, piperazine-N,N′-bis(2-ethanesulfonic acid)], in data set [3] (20° C.), the “pKa (20° C.)” value is recorded as 6.80. Also, in data set [3] (25° C.), the “pKa (25° C.)” value is 6.76. In data set [3] (37° C.), the “pKa (37° C.)” value was 6.66.

On to `NC(CO)(CO)CO` [Tris, tris(hydroxymethyl)aminomethane], for which the “pH of the temperature sensitive buffer” value in data set [4] is under 7.4.
